Experimental data: PMC12703428, “Development of Granzyme A Turn‐ON Fluorescent Activity‐Based Probes” (Chembiochem, 2025)

Target: T1, pro‐form of GzmA (without signal peptide) (Homo sapiens, UniProt P12544)
T1 construct: purchased R&D Systems 2905-SE-010
T1 sequence (P12544 29-262): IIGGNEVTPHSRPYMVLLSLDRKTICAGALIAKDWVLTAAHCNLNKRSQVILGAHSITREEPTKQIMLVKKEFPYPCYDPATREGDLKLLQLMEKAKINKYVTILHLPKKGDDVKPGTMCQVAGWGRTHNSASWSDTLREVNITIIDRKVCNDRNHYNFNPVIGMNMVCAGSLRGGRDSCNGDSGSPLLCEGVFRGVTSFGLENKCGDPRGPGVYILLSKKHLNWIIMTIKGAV
Test: In-gel fluorescence labeling of pro-form of hGzmA
Format: biochemical
Details: probe 50 nM, 2 h, 37 °C
Protocol: Figure 3 GzmA ABPs covalently and competitively label active human and mouse GzmA. […] Recombinant hGzmA (100 nM) was incubated with varying concentrations of each ABP at 37 °C. […] Recombinant hGzmA (100 nM) was preincubated with covalent inhibitors 1 or 2 (5 μM) for 2 h, followed by labeling with ABPs 3 -5 (50 nM) for 2 h at 37 °C. Note: […] C) Structure of qABP 6. D) Quenched natures of 5 and 6. […] F) Labeling of mGzmA (1 μM) with 5 and 6 (1 μM, 24 h, 37 °C). […] Recorded fluorescence at Ex/Em: 380/460 nm for residual GzmA proteolytic activity. […] B. Cell culture and preparation of cell lysates All cell lines were cultured at 37 °C under 5% CO2 in a humidified atmosphere. […] The supernatant was collected, and protein concentration was measured using a Pierce BCA protein assay. […] In-gel fluorescence imaging […] […] In-gel fluorescence and SYPRO-Ruby staining images were acquired on a Typhoon FLA9500 instrument, while western blot images were acquired on an […] […] Conditions for probe/inhibitor treatment for in-gel fluorescence analysis: Inhibitors and probes were incubated with active (or pro-) GzmA followed by treatment with 4X SDS reducing sample buffer. […] 20 μL of each sample was loaded onto a 15% polyacrylamide gel, which was then subjected to electrophoresis followed by the acquisition of in-gel fluorescence images. […]

For IGNR [compound 5], the “Labeling of pro-form of GzmA” value was “No labeling”.
